Values belong to the compound of their own block, whether it stands above or below them.
Tests used:
PEPCK = test: Hepatic expression of PEPCK by real-time PCR after central infusions; assay type: in vivo, Sprague-Dawley rats
Description: (§1) Gene expression. Gluconeogenic enzymes. Quantitative analysis of gene expression was done using RT-PCR. Total RNA was isolated with Trizol (Invitrogen) and single-strand cDNA was synthesized with a kit provided by Invitrogen. Real-time PCR reactions and the primers for G6 Pase and PEPCK were done as described (Pocai et al., in press). The copy number of each transcript was derived from a standard curve of cloned target templates. Expression of each transcript was normalized to copy number for 18s ribosomal protein.

[1] = test system: KATP channels within the medial hypothalamus; test: Intrahypothalamic (IH) infusion of diazoxide or insulin with pancreatic-insulin clamp in rats; assay type: in vivo, Sprague-Dawley rats; conditions: for rate of glucose infusion required to prevent hypoglycemia: IH infusion during pancreatic clamp, vs vehicle; for blood glucose levels / glucose production (GP): IH infusion; for blood glucose levels: bilateral, medial hypothalamus, fifteen-fold lower dose than ICV; for glucose production (GP): basal circulating insulin
Description: Animal preparation for the in vivo experiments. Rats. Eighty-nine 10-week-old male Sprague-Dawley rats (Charles River Breeding Laboratories, Wilmington, Mass.) were studied. Rats were housed in individual cages and subjected to a standard light-dark cycle. Three weeks prior to the in vivo studies, chronic catheters were implanted in the third cerebral ventricle (Obici et al., 2003; Liu et al., 1998) or intrahypothalamically (Morton et al., 2003) (IH) by stereotaxic surgery. One week before the pancreatic-insulin clamp protocols, rats received additional catheters in the right internal jugular and left carotid artery (FIG. 5) (Obici et al., 2003; Liu et al., 1998). In vivo studies. For the studies in rats, the metabolic experiments were performed ˜3 weeks after stereotaxic surgery following complete recovery from the operation (FIG. 5). All solutions were diluted with artificial cerebral spinal fluid (aCSF). […] Pancreatic-insulin clamp studies were performed as previously described (Liu et al., 1998). Euglycemic-hyperinsulinemic clamps in conscious, unrestrained, catheterized […] were performed for 90 min as previously described (Obici et al., 2003; Liu et al., 1998).

G6 Pase = test: Hepatic expression of G6 Pase by real-time PCR after central infusions; assay type: in vivo, Sprague-Dawley rats
Description: as §1

central KATP channels = test: ICV infusion of diazoxide with pancreatic-insulin clamp (1 mU/kg.min) in conscious rats; assay type: in vivo, Sprague-Dawley rats
Description: (§2) Animal preparation for the in vivo experiments. Rats. Eighty-nine 10-week-old male Sprague-Dawley rats (Charles River Breeding Laboratories, Wilmington, Mass.) were studied. Rats were housed in individual cages and subjected to a standard light-dark cycle. Three weeks prior to the in vivo studies, chronic catheters were implanted in the third cerebral ventricle (Obici et al., 2003; Liu et al., 1998) or intrahypothalamically (Morton et al., 2003) (IH) by stereotaxic surgery. One week before the pancreatic-insulin clamp protocols, rats received additional catheters in the right internal jugular and left carotid artery (FIG. 5) (Obici et al., 2003; Liu et al., 1998).
(§3) In vivo studies. For the studies in rats, the metabolic experiments were performed ˜3 weeks after stereotaxic surgery following complete recovery from the operation (FIG. 5). All solutions were diluted with artificial cerebral spinal fluid (aCSF). […] Pancreatic-insulin clamp studies were performed as previously described (Liu et al., 1998). Euglycemic-hyperinsulinemic clamps in conscious, unrestrained, catheterized mice were performed for 90 min as previously described (Obici et al., 2003; Liu et al., 1998).
(§4) Hepatic alucose fluxes. Rate of hepatic glucose fluxes was determined as described. Barzilai et al., 1997).

[2] = test system: hypothalamic KATP channels; test: Central insulin or diazoxide in rats on a high fat diet for three days (hepatic insulin resistance); assay type: in vivo; conditions: basal plasma insulin (20 μU/ml)
Procedure: Additional-experiments were also performed in rats maintained on a high fat diet regimen for three days.

[3] = test system: hypothalamic KATP channels; test: ICV infusion of insulin, KATP channel blocker (glibenclamide) or both with pancreatic-insulin clamp (1 mU/kg.min) in rats; assay type: in vivo, Sprague-Dawley rats; conditions: for Glucose: plasma; for rate of glucose infusion / glucose requirements: near basal circulating insulin levels
Description: as §2, with “surgery.” for “surgery. One week before the pancreatic-insulin clamp protocols, rats received additional catheters in the right internal jugular and left carotid artery (FIG. 5) (Obici et al., 2003; Liu et al., 1998).”
(§5) In vivo studies. For the studies in rats, the metabolic experiments were performed ˜3 weeks after stereotaxic surgery following complete recovery from the operation (FIG. 5). All solutions were diluted with artificial cerebral spinal fluid (aCSF). […] Euglycemic-hyperinsulinemic clamps in conscious, unrestrained, catheterized mice were performed for 90 min as previously described (Obici et al., 2003; Liu et al., 1998).
as §4

[4] = test system: hepatic glucose production; test: Pancreatic-hyperinsulinemic clamp (systemic insulin 3 mU/kg.min) in SHAM and HV rats; assay type: in vivo, Sprague-Dawley rats; conditions: systemic hyperinsulinemia ~3-fold over basal
Procedure: Panel A is a schematic representation of the pancreatic-hyperinsulinemic clamp procedure. At t=120 an infusion of labeled glucose was initiated and maintained for the remaining 4 hours of the study and a pancreatic hyperinsulinemic clamp was initiated at t=240 min and lasted for 2 hours.
as §3
(§6) Selective hepatic branch vagotomy. One week before the clamp procedure a subgroup of rats underwent selective hepatic vagotomy (HV) or sham operation (SHAM). Anatomical nerve transactions was verified in each rat at sacrifice by microscopic observation of the absence of vagal nerve fibers in between the two silk sutures that had been placed along the trunk at the time of transection (la Fleur et al., 2003).

[5] = target: T1, hypothalamic insulin receptors (Rattus norvegicus, UniProt P15127); test: ICV insulin with pancreatic-insulin clamp in rats with hepatic vagotomy (HV), sham operation or vagal deafferentation; assay type: in vivo, Sprague-Dawley rats; conditions: for Body wt.: ICV infusion; for 14C-PEP: liver
T1 construct: Paired groups of SHAM and HV rats received an ICV infusion of either insulin or vehicle; from tissue; host or cells: brain/hypothalamus of living Sprague-Dawley rats (sham, hepatic vagotomy or vagal deafferentation)
T1 sequence (P15127 27-759 limits assumed): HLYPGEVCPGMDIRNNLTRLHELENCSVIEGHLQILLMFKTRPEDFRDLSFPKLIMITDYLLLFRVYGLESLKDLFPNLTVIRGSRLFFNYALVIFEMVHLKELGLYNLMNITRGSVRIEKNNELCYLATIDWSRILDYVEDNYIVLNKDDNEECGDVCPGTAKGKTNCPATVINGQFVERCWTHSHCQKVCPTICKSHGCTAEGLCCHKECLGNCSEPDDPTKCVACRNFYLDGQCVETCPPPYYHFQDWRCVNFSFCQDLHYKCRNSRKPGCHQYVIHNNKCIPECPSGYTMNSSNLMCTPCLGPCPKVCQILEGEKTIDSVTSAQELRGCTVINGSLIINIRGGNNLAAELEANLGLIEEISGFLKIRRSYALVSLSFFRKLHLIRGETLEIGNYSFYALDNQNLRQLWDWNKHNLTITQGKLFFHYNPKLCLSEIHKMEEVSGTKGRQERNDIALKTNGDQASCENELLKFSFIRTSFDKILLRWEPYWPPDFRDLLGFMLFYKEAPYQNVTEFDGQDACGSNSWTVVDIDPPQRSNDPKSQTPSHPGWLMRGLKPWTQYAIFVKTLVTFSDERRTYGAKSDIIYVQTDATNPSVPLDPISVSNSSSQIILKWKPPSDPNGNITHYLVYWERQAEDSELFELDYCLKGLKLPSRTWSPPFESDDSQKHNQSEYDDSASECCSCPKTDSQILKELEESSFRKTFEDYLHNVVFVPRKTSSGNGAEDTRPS
T1 sequence (P15127 764-1383 partner limits assumed): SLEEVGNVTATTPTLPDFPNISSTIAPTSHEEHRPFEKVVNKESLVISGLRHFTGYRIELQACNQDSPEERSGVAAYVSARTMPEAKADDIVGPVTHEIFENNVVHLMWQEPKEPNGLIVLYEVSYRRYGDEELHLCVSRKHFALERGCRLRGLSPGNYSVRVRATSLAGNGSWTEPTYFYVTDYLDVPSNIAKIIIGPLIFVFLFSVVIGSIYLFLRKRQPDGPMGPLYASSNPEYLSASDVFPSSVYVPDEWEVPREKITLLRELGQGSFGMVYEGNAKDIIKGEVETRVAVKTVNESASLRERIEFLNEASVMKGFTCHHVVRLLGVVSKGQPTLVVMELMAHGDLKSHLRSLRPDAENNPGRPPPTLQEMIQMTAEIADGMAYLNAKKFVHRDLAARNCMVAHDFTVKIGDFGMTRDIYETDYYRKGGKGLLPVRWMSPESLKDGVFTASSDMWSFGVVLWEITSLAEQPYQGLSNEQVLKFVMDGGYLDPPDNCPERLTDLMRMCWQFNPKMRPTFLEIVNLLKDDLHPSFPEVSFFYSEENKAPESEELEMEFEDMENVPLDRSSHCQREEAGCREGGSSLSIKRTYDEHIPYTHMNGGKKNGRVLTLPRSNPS
Description: as §2, with “surgery.” for “surgery. One week before the pancreatic-insulin clamp protocols, rats received additional catheters in the right internal jugular and left carotid artery (FIG. 5) (Obici et al., 2003; Liu et al., 1998).”
as §5, §6
Selective vagal deafferentation. Nerve transection was performed as previously described, according to the methods of Norgren and Smith (Norgren & Smith, 1998).
as §4

[6] = ICV infusion, liver harvested at completion of infusions
[7] = Basal, before the clamp, ICV infusion

Compound: CC1=NS(=O)(=O)c2cc(Cl)ccc2N1 [diazoxide]
liver PEPCK mRNA levels (PEPCK; [6]): markedly decreased
rate of glucose infusion required to prevent hypoglycemia [1]: significant increases
blood glucose levels [1]: lowered blood glucose levels
glucose production (GP) [1]: marked suppression of GP
liver G6 Pase mRNA levels (G6 Pase; [6]): markedly decreased
Glucose (central KATP channels; Basal, before the clamp, plasma, ICV infusion): 7.9 ± 0.4 mM
gluconeogenesis (central KATP channels; ICV): marked inhibition of gluconeogenesis
glucose cycling (central KATP channels; ICV): significantly reduced glucose cycling
rate of glycogenolysis (central KATP channels; ICV): not significantly decreased
blood glucose levels (central KATP channels; ICV (third cerebral ventricle), conscious rats): lowered blood glucose levels
glucose infusion required to prevent hypoglycemia (central KATP channels; ICV, basal circulating insulin levels): glucose infusion was required to prevent hypoglycemia
decrease in glucose production (GP) (central KATP channels; ICV, basal insulin levels (~20 μU/ml)): 45±4%
flux through G6 Pase (central KATP channels; ICV, in vivo): decreased the flux through G6 Pase
rate of glucose uptake (central KATP channels; ICV, pancreatic-insulin clamp): not significantly affected
% Indirect (central KATP channels; indirect pathway (gluconeogenesis), ICV infusion, Table 6): 9.7 ± 4.1 %
inhibition of glucose production ([2]; ICV or intrahypothalamic infusion): ~45%

Compound: COc1ccc(Cl)cc1C(=O)NCCc1ccc(S(=O)(=O)NC(=O)NC2CCCCC2)cc1 [glibenclamide, 5-Chloro-N-[2-[4-(3-cyclohexylureidosulfonyl)phenyl]ethyl]-2-methoxybenzamide, reference compound]
Glucose [3, 7]: 8.2 ± 0.5 mM
Glucose ([3]; Clamp steady state, ICV infusion): 8.2 ± 0.9 mM
rate of glucose infusion / glucose requirements ([3]; ICV): did not modify the rate of glucose infusion
glucose production (GP) ([3]; ICV, pancreatic clamp): did not per se affect GP
% Indirect ([3]; indirect pathway (gluconeogenesis), ICV infusion, Table 7): 32.4 ± 3.0%

Body wt. ([5]; HV, Basal): 295 ± 4 g
FFA ([5]; HV, Basal, plasma): 0.5 ± 0.2 mM
Glucose ([5]; HV, Basal, plasma): 7.9 ± 0.5 mM
FFA ([5]; HV, Clamp steady state, plasma): 0.5 ± 0.3 mM
Glucose ([5]; HV, Clamp steady state, plasma): 8.0 ± 0.6 mM
Insulin ([5]; HV, Clamp steady state, plasma): 0.9 ± 0.3 ng/mL
hepatic glucose fluxes ([5]; HV, ICV): failed to affect hepatic glucose fluxes
decrease in glucose production (GP) ([5]; HV, ICV, basal and equal insulin levels): not in HV rats
3H-Glucose Plasma SA ([5]; HV, Table 8): 52.4 ± 3.5 dpm/nmol
% Indirect ([5]; HV, indirect pathway (gluconeogenesis), Table 8): 34.4 ± 9.7%
14C-PEP ([5]; HV, Table 8): 5.5 ± 1.4 dpm/nmol
rate of glucose uptake ([5]; ICV, either SHAM or HV rats): not significantly affected
gluconeogenesis ([5]; SHAM, ICV): marked inhibition of gluconeogenesis
3H-Glucose Plasma SA ([5]; SHAM, Table 8): 43.1 ± 1.9 dpm/nmol
3H-UDP-glucose Liver SA ([5]; SHAM, Table 8): 5.5 ± 0.5 dpm/nmol
Direct (%) ([5]; SHAM, direct pathway, Table 8): 12.1 ± 0.71%
14C-PEP ([5]; SHAM, Table 8): 10.9 ± 0.6 dpm/nmol
Body wt. ([5]; Sham, Basal): 310 ± 5 g
FFA ([5]; Sham, Basal, plasma): 0.5 ± 0.3 mM
Glucose ([5]; Sham, Basal, plasma): 7.9 ± 0.3 mM
FFA ([5]; Sham, Clamp steady state, plasma): 0.4 ± 0.1 mM
ability to lower blood glucose levels and to suppress GP ([5]; rats with selective vagal deafferentation, ICV): did not alter
Compound: insulin
liver PEPCK mRNA levels (PEPCK; [6]): marked KATP channels dependent decreases
liver PEPCK mRNA levels (PEPCK; SHAM, ICV): marked decrease
rate of glucose infusion required to prevent hypoglycemia [1]: significant increases
blood glucose levels [1]: reproduced the potent effects of ICV insulin or diazoxide
glucose production (GP) [1]: reproduced the potent effects of ICV insulin or diazoxide
liver G6 Pase mRNA levels (G6 Pase; [6]): marked KATP channels dependent decreases
liver G6 Pase mRNA levels (G6 Pase; SHAM, ICV): marked decrease
suppression of GP ([4]; HV): 38±11%
suppression of GP ([4]; SHAM): 80±8%
flux through G6 Pase ([5]; SHAM, ICV): markedly decreased the flux through G6 Pase
glucose infusion required to prevent hypoglycemia ([5]; SHAM, ICV, ~basal circulating insulin): glucose infusion was required to prevent hypoglycemia
Glucose [3, 7]: 7.8 ± 0.3 mM
flux through G6 Pase ([3]; ICV): markedly decreased the flux through G6 Pase
gluconeogenesis ([3]; ICV): marked inhibition of gluconeogenesis
rate of glycogenolysis ([3]; ICV): not significantly decreased
blood glucose levels ([3]; ICV (third cerebral ventricle)): lowers blood glucose levels
decrease in glucose production (GP) ([3]; ICV, basal and equal insulin levels): 52±8%
rate of glucose infusion / glucose requirements ([3]; ICV): glucose infusion was required to prevent hypoglycemia
inhibition of glucose production ([2]; central administration): failed to significantly inhibit glucose production

Source: patent US20070026079A1, “Intranasal administration of modulators of hypothalamic ATP-sensitive potassium channels” (priority 2005, published 2007)
